For ten compounds, EC50, IC50 and melting point results are on record in patent publication US7244763B2, “Compounds that modulate PPAR activity and methods of preparation” (Warner Lambert Company LLC, priority 2003, dated 2007).

The EC50 is the concentration at which the effect is half-maximal. As a reminder, the IC50 is the concentration at which inhibition is half-maximal. A lower IC50 goes with inhibition by little substance. The melting point is the temperature, or range, at which the solid turns liquid.

The target of one data set is T1, hPPARβ (Homo sapiens, UniProt Q03181).
T1 construct: expression plasmids encoding hPPARα, hPPARβ or mPPARγ chimeric receptors
T1 sequence (Q03181 171-441 limits assumed): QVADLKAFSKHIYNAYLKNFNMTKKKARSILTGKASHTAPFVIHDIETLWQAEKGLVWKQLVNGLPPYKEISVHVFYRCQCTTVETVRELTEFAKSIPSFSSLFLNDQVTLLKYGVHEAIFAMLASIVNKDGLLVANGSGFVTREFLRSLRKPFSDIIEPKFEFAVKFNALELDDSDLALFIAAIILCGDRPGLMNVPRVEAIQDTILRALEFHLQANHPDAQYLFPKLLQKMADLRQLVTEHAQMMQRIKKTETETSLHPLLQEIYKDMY
The experiment in a line: Test A transient transfection assay, HepG2 cells, Gal4-PPAR chimeric receptor luciferase reporter (Hep G2-hBeta). It counts as cell-based. The note with it: HepG2 cells transfected with hPPARβ chimeric receptor, 24 hours, read-out: EC50β (Hep G2-hBeta EC50). As to the method: (§1) 1. Test A. Transient Transfections Assay Using the HepG2 Hepatoma Cell Line.
(§2) HepG2 cells were transiently transfected with an expression plasmids encoding hPPARα, hPPARβ or mPPARγ chimeric receptors and a reporter containing the yeast upstream activating sequence (UAS) upstream of the viral E1B promoter controlling a luciferase reporter gene. In addition, the plasmid pRSVβ-gal was used to control for transfection efficiency. HepG2 cells were grown in DMEM supplemented with 10% FBS and 1 μM non-essential amino acid. On the first day, cells were split into 100 mm dishes at 2.5×10^6/dish and incubated overnight at 37C.°/5% CO2. On the second day the cells were transiently transfected with plasmid DNA encoding a chimeric receptor, the luciferase reporter gene; and β-gal. For each 100 mm dish, 15 μg of luciferase reporter (PG5E1b) DNA, 15 μg of Gal4-PPAR chimeric receptor DNA, and 1.5 μg of β-gal plasmid DNA were mixed with 1.4 ml of opti-MEM in the tube. 281 μl of LipoFectamine-2000 reagent was added to 1.4 ml of opti-MEM in the tube, and incubate for 5 min at RT. The diluted Lipofectamine-2000 reagent was combined with the DNA mixture, and incubate for 20 min at RT. After fresh medium was added to each 100 mm dish of cells, 2.8 ml of Lipofectamine2000-DNA mixture was added dropwise to the 100 mm dish containing 14 ml of medium, and incubate 37° C. overnight. […]
For orientation: A reporter such as luciferase makes a cellular process visible.

The target in a further data set is T2, human PPARβ LBD (Homo sapiens, UniProt Q03181).
T2 construct: made in house; host or cells: E. coli BL21(DE3)pLysS
T2 sequence (Q03181 211-439 limits assumed): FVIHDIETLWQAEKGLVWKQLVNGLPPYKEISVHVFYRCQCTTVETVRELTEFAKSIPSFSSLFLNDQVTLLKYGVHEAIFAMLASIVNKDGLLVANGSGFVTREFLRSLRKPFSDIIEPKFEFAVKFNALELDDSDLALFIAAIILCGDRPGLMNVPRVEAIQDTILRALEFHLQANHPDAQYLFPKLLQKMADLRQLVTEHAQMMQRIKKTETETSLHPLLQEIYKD
The experiment in a line: Test B radioligand competition binding assay (SPA), PPARβ LBD-GST fusion protein. As to conditions: concentration that inhibits 50% of interaction between PPARβ LBD and tritiated ligand. The source says: 2. Test B. Radioligand Binding Assay
The ability of a compound to interact with PPARβ can be determined using a competition-based receptor binding assay that employs a radiolabeled PPARβ ligand together with a fragment of the PPARβ receptor containing the ligand binding domain (LBD) fused to the protein glutathione-S-transferase (GST). • [1] Preparation of PPARβ LBD-GST fusion protein. The ligand binding domain of the human PPARβ LBD-GST fusion protein can be expressed in E. coli and purified as outlined below. DNA encoding the LBD of human PPARβ is amplified via PCR and inserted in-frame into the bacterial expression vector pGEX-2t PPARβ LBD-GST fusion proteins are expressed in BL21(DE3)pLysS cells. After a 1–2 hr incubation with up to 1 mM IPTG, the cells are lysed by freeze-thaw in buffer containing 50 mM Tris (pH=8), 250 mM KCl, 10 mM DTT, 1 mM PMSF, and 1% triton X-100. After room temperature DNAse and RNAse treatment for 15 min and centrifugation for 1 hr at 50,000×g, 1.5 ml of a glutathione-Sepharose 4B slurry in PBS is added to the resulting supernatant and the mixture is incubated at room temperature for 30 min. […] After incubation with shaking at room temperature for 30 minutes, radioactivity bound to the PPARβ LBD-GST fusion protein/anti-GST/SPA antibody-binding bead complex is assessed using a Wallac MicroBeta plate reader. […]
Background: Displacement assays read how much labelled ligand stays bound in the presence of the test substance.

The next data set concerns the target T3, PPARαLBD (Homo sapiens, UniProt Q07869).
T3 construct: GST (inferred from 'similar procedure')
T3 sequence (Q07869 239-466 limits assumed): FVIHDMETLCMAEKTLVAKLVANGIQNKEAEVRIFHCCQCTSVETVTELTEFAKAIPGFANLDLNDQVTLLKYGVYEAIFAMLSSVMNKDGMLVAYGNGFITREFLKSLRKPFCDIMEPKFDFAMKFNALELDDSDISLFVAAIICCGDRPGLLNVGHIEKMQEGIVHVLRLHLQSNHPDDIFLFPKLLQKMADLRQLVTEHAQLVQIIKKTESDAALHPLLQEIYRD
The experiment in a line: Test B radioligand competition binding assay, similar procedure with PPARα LBD. As to conditions: competition binding to PPARα LBD.

The target of a further data set is T4, hPPARα (Homo sapiens, UniProt Q07869).
T4 construct: expression plasmids encoding hPPARα, hPPARβ or mPPARγ chimeric receptors
T4 sequence (Q07869 200-468 limits assumed): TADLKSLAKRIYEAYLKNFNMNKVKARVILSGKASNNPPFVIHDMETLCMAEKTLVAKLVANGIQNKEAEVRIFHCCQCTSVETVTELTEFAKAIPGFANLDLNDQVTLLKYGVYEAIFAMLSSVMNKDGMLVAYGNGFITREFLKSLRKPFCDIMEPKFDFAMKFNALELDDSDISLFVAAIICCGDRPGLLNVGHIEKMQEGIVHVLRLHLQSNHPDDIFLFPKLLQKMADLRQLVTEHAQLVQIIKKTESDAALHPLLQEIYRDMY
The experiment in a line: Test A transient transfection assay, HepG2 cells, Gal4-PPAR chimeric receptor luciferase reporter (Hep G2-hAlpha). Format: cell-based. As to conditions: HepG2 cells transfected with hPPARα chimeric receptor, 24 hours, read-out: EC50α (Hep G2-hAlpha EC50). As to the method:
as §1, §2

`O=C(O)CC1CCc2cc(SCc3ccc(-c4ccc(C(F)(F)F)cn4)cc3)ccc2O1` (centres unmarked) [Compound 10, {6-[4-(5-Trifluoromethyl-pyridin-2-yl)-benzylsulfanyl]-chroman-2-yl}-acetic acid]: the EC50 on hPPARβ is 6660 nM.

With `COc1cc(C(C)(C)C(=O)O)ccc1SCc1ccc(-c2ccc(C(F)(F)F)cn2)cc1` [Compound 21, 2-{3-Methoxy-4-[4-(5-trifluoromethyl-pyridin-2-yl)-benzylsulfanyl]-phenyl}-2-methyl-propionic acid], the EC50 at hPPARβ came to 303 nM. Moreover, the half-maximal inhibitory concentration (IC50) at human PPARβ LBD was determined as 449 nM.

In turn, `O=C(O)COc1ccc(SCc2ccc(OC3CCc4cc(Cl)ccc43)cc2)c2c1CCC2` (centres unmarked) [Compound 23, {7-[4-(5-Chloro-indan-1-yloxy)-benzylsulfanyl]-indan-4-yloxy}-acetic acid] came in with a melting point of 169 to 170 °C.

For the compound `O=C(O)Cc1coc2cc(OCc3cc(-c4ccc(Cl)cc4)on3)ccc12` [Compound 24, {6-[5-(4-Chloro-phenyl)-isoxazol-3-ylmethoxy]-benzofuran-3-yl}-acetic acid], the melting point was 193 to 194 °C.

`O=C(O)Cc1coc2cc(OCc3ccc(OCc4ccc(C(F)(F)F)cc4)cc3)ccc12` [Compound 25, {6-[4-(4-Trifluoromethyl-benzyloxy)-benzyloxy]-benzofuran-3-yl}-acetic acid]: the melting point lay within 161 to 163 °C.

Regarding `Cc1cc(SCCCc2ccc3ccccc3c2)ccc1OCC(=O)O` [Compound 27, [2-Methyl-4-(3-naphthalen-2-yl-propylsulfanyl)-phenoxy]-acetic acid], the half-maximal inhibitory concentration (IC50) at PPARαLBD was found to be 3540 nM.

`Cc1cc(SCCCCOc2ccc(Cl)cc2Cl)ccc1OCC(=O)O` [Compound 31, {4-[4-(2,4-Dichloro-phenoxy)-butylsulfanyl]-2-methyl-phenoxy}-acetic acid] had a half-maximal inhibitory concentration (IC50) on human PPARβ LBD of 6.8 nM.

With `O=C(O)C1(c2ccc(SCc3ccc(-c4ccc(C(F)(F)F)cc4)cc3)cc2)CC1` [Compound 36, 1-[4-(4′-Trifluoromethyl-biphenyl-4-ylmethylsulfanyl)-phenyl]-cyclopropanecarboxylic acid], the 50% effective concentration (EC50) on hPPARα was determined as 1960 nM.

As to `O=C(O)Cc1csc2c(OCc3cc(-c4ccc(Cl)cc4)on3)cccc12` [Compound 77, {7-[5-(4-Chloro-phenyl)-isoxazol-3-ylmethoxy]-benzo[b]thiophen-3-yl}-acetic acid], the melting point is 229 to 230 °C (dec.).

Compound `Cc1cc2c(CC(=O)O)csc2cc1OCc1ccccc1OCc1ccc(C(F)(F)F)cc1` [Compound 78, {5-Methyl-6-[2-(4-trifluoromethyl-benzyloxy)-benzyloxy]-benzo[b]-thiophen-3-yl}-acetic acid] displayed a melting point of 157 to 158 °C.
